For 25 compounds, AC50 and EC50 results are on record in ChEMBL document CHEMBL1201862, “PubChem BioAssay data set” (2004).

Experiment [1] addresses T1, Replicative DNA helicase DnaB (Mycobacterium tuberculosis, UniProt P9WMR3).
T1 sequence (P9WMR3 whole entry): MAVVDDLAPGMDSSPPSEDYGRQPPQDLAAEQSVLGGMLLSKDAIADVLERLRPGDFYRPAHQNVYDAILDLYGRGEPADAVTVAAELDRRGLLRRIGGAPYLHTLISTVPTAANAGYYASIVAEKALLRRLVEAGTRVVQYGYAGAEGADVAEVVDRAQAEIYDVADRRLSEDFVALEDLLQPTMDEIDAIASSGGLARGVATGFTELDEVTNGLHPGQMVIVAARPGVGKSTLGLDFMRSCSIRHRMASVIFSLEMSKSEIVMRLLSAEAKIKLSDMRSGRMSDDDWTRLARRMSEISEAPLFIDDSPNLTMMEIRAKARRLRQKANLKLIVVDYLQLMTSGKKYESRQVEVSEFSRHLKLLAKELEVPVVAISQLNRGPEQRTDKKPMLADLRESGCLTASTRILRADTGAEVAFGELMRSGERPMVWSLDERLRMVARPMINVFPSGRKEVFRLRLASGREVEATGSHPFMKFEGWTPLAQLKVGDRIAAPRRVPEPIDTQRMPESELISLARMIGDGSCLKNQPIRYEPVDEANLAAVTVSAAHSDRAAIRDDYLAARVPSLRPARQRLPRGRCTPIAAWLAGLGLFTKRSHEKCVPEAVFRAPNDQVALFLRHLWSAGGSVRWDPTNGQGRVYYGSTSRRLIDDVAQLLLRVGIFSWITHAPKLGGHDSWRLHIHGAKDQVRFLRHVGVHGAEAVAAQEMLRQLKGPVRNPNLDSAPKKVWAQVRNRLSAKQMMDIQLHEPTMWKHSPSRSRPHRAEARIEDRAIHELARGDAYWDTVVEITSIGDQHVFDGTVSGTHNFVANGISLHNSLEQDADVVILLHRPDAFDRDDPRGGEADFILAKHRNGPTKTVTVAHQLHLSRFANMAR
As to the kind of experiment: DnaB intein splicing inhibitors, dose response, biochemical, cell-free fluorescence (AID 449749). The class given is functional.

Another experiment deals with T2, Protein RecA (Mycobacterium tuberculosis, UniProt P9WHJ3).
T2 sequence (P9WHJ3 whole entry): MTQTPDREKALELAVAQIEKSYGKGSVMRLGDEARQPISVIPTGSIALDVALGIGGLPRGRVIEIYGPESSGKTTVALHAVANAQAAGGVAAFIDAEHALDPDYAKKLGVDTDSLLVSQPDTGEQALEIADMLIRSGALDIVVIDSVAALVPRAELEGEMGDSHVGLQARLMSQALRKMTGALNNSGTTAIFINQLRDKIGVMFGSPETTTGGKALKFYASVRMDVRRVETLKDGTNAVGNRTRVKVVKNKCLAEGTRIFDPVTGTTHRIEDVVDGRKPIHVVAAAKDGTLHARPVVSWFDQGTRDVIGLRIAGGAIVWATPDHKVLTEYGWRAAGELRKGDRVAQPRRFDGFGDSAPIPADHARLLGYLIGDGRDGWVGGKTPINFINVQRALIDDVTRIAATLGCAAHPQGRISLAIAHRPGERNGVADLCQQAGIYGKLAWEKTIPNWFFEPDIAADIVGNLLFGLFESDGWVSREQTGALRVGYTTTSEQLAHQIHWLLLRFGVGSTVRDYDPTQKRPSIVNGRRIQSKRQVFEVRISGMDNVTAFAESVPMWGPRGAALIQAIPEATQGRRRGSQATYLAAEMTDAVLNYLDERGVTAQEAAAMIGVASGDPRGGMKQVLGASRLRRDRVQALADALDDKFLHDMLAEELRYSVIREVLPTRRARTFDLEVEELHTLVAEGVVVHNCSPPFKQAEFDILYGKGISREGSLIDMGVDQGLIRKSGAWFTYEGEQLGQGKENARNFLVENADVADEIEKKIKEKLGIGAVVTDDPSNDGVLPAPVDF
Kind of experiment: Fluorescence Cell-Free Homogeneous Dose Retest to Identify Inhibitors of RecA-Intein Splicing Activity. [Related pubchem assays (depositor defined):AID2097, AID2223, AID489010, AID492950]. The experiment is classed as functional.

Another experiment deals with Cytochrome P450 2C9 (Homo sapiens, UniProt P11712).
Chain of Cytochrome P450 2C9 (P11712 whole entry): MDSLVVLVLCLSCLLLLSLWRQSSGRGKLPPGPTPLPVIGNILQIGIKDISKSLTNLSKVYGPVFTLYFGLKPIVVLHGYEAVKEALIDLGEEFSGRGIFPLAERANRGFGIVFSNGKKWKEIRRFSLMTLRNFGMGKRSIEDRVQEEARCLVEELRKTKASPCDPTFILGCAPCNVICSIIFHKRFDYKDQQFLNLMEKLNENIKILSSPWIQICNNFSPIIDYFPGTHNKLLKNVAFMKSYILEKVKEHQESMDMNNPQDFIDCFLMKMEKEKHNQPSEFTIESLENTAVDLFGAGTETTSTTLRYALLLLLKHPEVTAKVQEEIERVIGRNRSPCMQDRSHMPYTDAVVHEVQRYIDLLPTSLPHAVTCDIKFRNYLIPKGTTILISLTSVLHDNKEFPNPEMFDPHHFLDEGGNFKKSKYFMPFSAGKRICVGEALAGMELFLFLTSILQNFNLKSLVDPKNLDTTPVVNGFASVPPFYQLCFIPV
Experiment [2] can be described thus: Luminescence Cell-Based Dose Response HTS to Identify Activators of Luciferase Translation or Activity in H4 […] Cells. [Related pubchem assays: 1829 (Project Summary), 1814 (Primary HTS)]. The experiment is classed as functional.
The next experiment relates to H4. As to the kind of experiment: Luminescence Cell-Based Dose Response HTS to Identify Activators of 5'UTR Stem-Loop Driven Prion Protein mRNA Translation in H4 Neuroglioblastoma Cells. [Related pubchem assays: 1829 (Project Summary), 1814 (Primary HTS)]. The experiment is classed as functional. Conditions: Homo sapiens.
Experiment [3] in a line: Luminescence Cell-Based Dose Confirmation HTS to Identify Activators of 5'UTR Stem-Loop Driven Alpha-Synuclein mRNA Translation in H4 Neuroglioblastoma Cells. [Related pubchem assays: 1829 (Project Summary), 1814 (Primary HTS)]. The experiment is classed as functional.
The next experiment concerns the target Cytochrome P450 3A4 (Homo sapiens, UniProt P08684).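 Also: CYP3A4 tested as one member of a cytochrome P450 panel screen.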
Experiment [4] in a line: alpha-synuclein stem-loop luciferase translation blockers – H4 neuroglioma cells, luminescence, confirmation (AID 1988). The experiment is classed as functional, cell-based.
Experiment [5] in a line: luciferase reporter signal suppression in cells – H4 neuroglioma cells, luminescence, dose response (AID 1990). The class given is functional, cell-based. (In general: A reporter such as luciferase makes a cellular process visible.)
Experiment [6] can be described thus: Luminescence Cell-Based Dose Response HTS to Identify Inhibitors of 5'UTR Stem-Loop Driven Prion Protein mRNA Translation in H4 Neuroglioblastoma Cells. [Related pubchem assays: 1827 (Project Summary), 1813 (Primary HTS)]. The class given is functional.
The target in a further experiment is Cytochrome P450 2C19 (Homo sapiens, UniProt P33261). Kind of experiment: Cytochrome panel assay with activity outcomes. Panel member name: p450-cyp2c19 Compounds with AC50 equal or less than 10 uM are considered active. The experiment is classed as functional. Conditions: read-out: AC50.
Chain of Cytochrome P450 2C19 (P33261 whole entry): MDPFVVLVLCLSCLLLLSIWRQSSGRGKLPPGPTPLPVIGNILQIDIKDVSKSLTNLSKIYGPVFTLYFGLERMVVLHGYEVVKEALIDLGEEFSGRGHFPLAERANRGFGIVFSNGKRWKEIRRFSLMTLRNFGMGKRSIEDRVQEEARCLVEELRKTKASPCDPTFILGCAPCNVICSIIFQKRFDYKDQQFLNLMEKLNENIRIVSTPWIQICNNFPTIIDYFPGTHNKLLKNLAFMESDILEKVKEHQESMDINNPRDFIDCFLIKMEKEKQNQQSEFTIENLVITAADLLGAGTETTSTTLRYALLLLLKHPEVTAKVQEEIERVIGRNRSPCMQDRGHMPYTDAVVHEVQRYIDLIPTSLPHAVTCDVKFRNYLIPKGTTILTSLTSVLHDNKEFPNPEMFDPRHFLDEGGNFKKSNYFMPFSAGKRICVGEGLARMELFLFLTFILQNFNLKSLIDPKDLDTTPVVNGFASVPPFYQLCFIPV

Calls of active or inactive are those of the source.

Chain of Cytochrome P450 3A4 (P08684 whole entry): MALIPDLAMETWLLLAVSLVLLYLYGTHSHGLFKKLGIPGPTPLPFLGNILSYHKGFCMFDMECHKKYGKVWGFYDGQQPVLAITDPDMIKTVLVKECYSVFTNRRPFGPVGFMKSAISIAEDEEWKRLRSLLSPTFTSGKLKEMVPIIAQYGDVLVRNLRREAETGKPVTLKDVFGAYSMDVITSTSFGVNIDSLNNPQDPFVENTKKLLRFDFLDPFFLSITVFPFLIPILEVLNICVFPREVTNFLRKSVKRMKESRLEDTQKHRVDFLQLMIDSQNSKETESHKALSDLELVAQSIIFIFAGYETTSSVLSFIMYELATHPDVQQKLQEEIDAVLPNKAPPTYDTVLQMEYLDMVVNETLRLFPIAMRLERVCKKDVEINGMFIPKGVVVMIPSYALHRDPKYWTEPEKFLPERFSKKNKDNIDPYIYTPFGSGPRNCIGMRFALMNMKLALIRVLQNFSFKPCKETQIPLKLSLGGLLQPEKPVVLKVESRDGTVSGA

For orientation: AC50 means the concentration giving half of the maximal activity seen. The EC50 is the concentration giving half of the maximal effect. In the case of `O=C(Nc1cccc(OC(=O)c2ccco2)c1)c1ccco1`, the AC50 in experiment [1] is 21.4 µM (active); at Cytochrome P450 2C9, 25.1 µM (inconclusive). Further, the EC50 on Protein RecA was 10.1 µM (active).
`CCOC(=O)N1CCC(NC(=O)c2ccc3c(c2)sc2nc(-c4cccc(OC)c4)cn23)CC1`: the EC50 in experiment [2] is 12.6 µM (active); with H4 it was 7.29 µM (active); in experiment [3], 28.6 µM (active).
On to `Cc1ccc2nc(-c3ccc(S(=O)(=O)N4CCCCC4)cc3)cn2c1`, for which the EC50 in [2] is 24.4 µM (active); in the experiment on H4, 14.9 µM (active); in experiment [3], > 120 µM (not active).
Consider `Cc1nn(C)c(C)c1CNC(=O)c1cnn2c1NC(c1ccccc1)CC2C(F)(F)F` (centres undefined), for which the AC50 on Cytochrome P450 2C9 is 15.8 µM (inconclusive).
For `CC1CC1C(=O)OCC(=O)NC(=O)NC12CC3CC(CC(C3)C1)C2` (centres undefined), the 50% effective concentration (EC50) in experiment [2] is 21.1 µM (active); with H4, 15.4 µM (active); in experiment [3], 13.1 µM (active).
On the same counts, the results for `CC1CCCC(/C=N/c2ccc3c(c2)OCO3)=C1O` (centres undefined) are 16.1 µM (active), 39.1 µM (active) and 13.7 µM (active).
Regarding `CC(C)[C@@H]1NC(=O)[C@H](CCCCN)NC(=O)[C@H](Cc2c[nH]c3ccccc23)NC(=O)[C@H](Cc2ccc(O)cc2)NC(=O)[C@H](C)N(C)C(=O)[C@H](Cc2ccccc2)NC1=O`, the AC50 on Cytochrome P450 2C9 was 25.1 µM (inconclusive).
For the compound `O=C(OCc1nc2ccccc2[nH]1)C12CC3CC(CC(C3)C1)C2`, the AC50 at Cytochrome P450 2C9 is 14.1 µM (inconclusive); at Cytochrome P450 3A4, 1.12 µM (inconclusive).
As for `COc1cc(N=C(S)N2CCOCC2)c(OC)cc1Cl`, the EC50 (in [2]; in the experiment with H4; in experiment [3]) was > 120 µM (not active) in each case.
With `CS(=O)(=O)NNC(=O)CN1C(=O)C2C3C=CC(C3)C2C1=O` (centres undefined), the EC50 was > 120 µM (not active) in experiment [4], > 120 µM (not active) in experiment [5] and 22.1 µM (active) in [6].
As to `COC(=O)c1ccc(COC(=O)c2nn(C)c(=O)c3ccccc23)cc1`, the EC50 in [2] is 14.1 µM (active); in the experiment on H4, > 120 µM (not active); in experiment [3] it was 15.6 µM (active).
`COC(=O)C1=C(NC(=O)c2cccs2)CCS1`: the figures for the AC50 on Cytochrome P450 2C19 and on Cytochrome P450 2C9 were 17.8 µM (inconclusive) and 39.8 µM (inconclusive), respectively.
With `O=C(c1cc(C(F)(F)F)cc(C(F)(F)F)c1)N1CCC2(CCCN(Cc3ccncc3)C2)CC1`, the AC50 on Cytochrome P450 2C19 is 25.1 µM (inconclusive); on Cytochrome P450 2C9 it was 7.94 µM (inconclusive); on Cytochrome P450 3A4, 10 µM (inconclusive).
`C/C(=N\NC(N)=O)c1ccc(Cl)cc1`: the AC50 was 31.6 µM (inconclusive) on Cytochrome P450 2C19 and 2 µM (inconclusive) on Cytochrome P450 2C9.
As for `COc1cc(-c2onc3ccc(Br)cc23)cc(OC)c1OC`, the EC50 was 4.29 µM (active) in experiment [4], > 120 µM (not active) in experiment [5] and 10.8 µM (active) in [6].
In the case of `O=C(c1ccccc1)N1C(=O)C(c2ccccc2)Oc2ccccc21` (centres undefined), the EC50 in [4], in experiment [5] and in [6] was > 120 µM (not active) throughout.
For `C=CCOc1ccc(C(=O)C2=C(O)C(=O)N(CCCn3ccnc3)C2c2cccs2)cc1` (centres undefined), the values for the EC50 (in experiment [2]; in the experiment on H4; in experiment [3]) were 12 µM (active), > 120 µM (not active) and > 120 µM (not active), respectively.
As to `N#Cc1cccc(-c2nc(NCc3cccnc3)c3ccccc3n2)c1`, the AC50 at Cytochrome P450 2C9 was 1.58 µM (inconclusive).
As for `O=C(c1cnn2c(C(F)F)cc(-c3ccccc3)nc12)N1CCCc2ccccc21`, the values for the EC50 in experiment [4], in experiment [5] and in [6] were 26.3 µM (active), 19.2 µM (active) and 23.8 µM (active), respectively.
Consider `CCOc1ccccc1-n1c(CN2CCN(C(=O)c3ccco3)CC2)nc2ccccc2c1=O`, for which the EC50 in experiment [4] was 7.97 µM (active); in experiment [5] it was 8.25 µM (active); in experiment [6], 8.43 µM (active).
On to `COC(=O)c1cc(CSc2nc3ccccc3[nH]2)oc1C`, for which the half-maximal effective concentration (EC50) in [2] is 31.9 µM (active); in experiment [3], 12.8 µM (active).
`O=C(CCN1CCN(CC(=O)Nc2ccccc2Cl)CC1)Nc1ccccc1F`: the AC50 on Cytochrome P450 2C9 is 10 µM (inconclusive); on Cytochrome P450 3A4 it was 20 µM (inconclusive).
For the compound `CC1CCc2nc(NC(=O)C3COc4ccccc4O3)sc2C1` (centres undefined), the concentration for a half-maximal effect (EC50) in experiment [4] was 5.45 µM (active); in experiment [5], 5.93 µM (inconclusive); in [6], 10 µM (active).
As to `COC(=O)c1cnn(-c2nc(-c3ccccc3)cs2)c1N`, the EC50 is 72.2 µM (active) in experiment [2], > 120 µM (not active) with H4 and 0.585 µM (active) in [3].
On to `Cc1cc(Oc2ccc3ccccc3c2)nc(SCC(=O)c2ccccc2)n1`, for which the EC50 is 26.9 µM (active) in experiment [4], > 120 µM (not active) in [5] and 15 µM (active) in experiment [6].
